Assay results reported in US9408847B2, “Combination therapy” (Novartis AG, priority 2012, dated 2016).

Test system: MCF7 tumor xenograft
Test: MCF7 tumor xenograft model in vivo
Details: female nude mice
Procedure: MCF-7 cells were purchased from American Type Culture Collection (ATCC). They were tested free of mycoplasma and viral contamination in the IMPACT VIII PCR assay panel (RADIL, MU Research Animal Diagnostic Laboratory, Columbia, Mo.). They were cultured in EMEM medium (ATCC#30-2003) containing 10% heat inactivated fetal bovine serum, and were at passage 18 for this experiment. Female, nude mice from Harlan (Hsd:Athymic Nude-Foxn1nu) were used in this xenograft study. Mice received 17b-estradiol pellets (0.18 mg/pellet, 90-day release) (Innovative research of America Catalog # NE-121) implanted between the shoulder blades three days before cell implantation. Tumor volume and body weight were monitored throughout the experiment.

Structure (SMILES)	T/T0 (monotherapy at 5 mg/kg)	T/T0 (monotherapy at 75 mg/kg)
COC1CC2CC[C@@H](C)[C@@](O)(O2)C(=O)C(=O)N2CCCC[C@H]2C(=O)OC(C(C)C[C@@H]2CCC(OCCO)[C@H](OC)C2)CC(=O)C(C)/C=C(\C)[C@@H](O)C(OC)C(=O)[C@H](C)CC(C)/C=C/C=C/C=C/1C (stereo in doubt) [Compound B, (1R,9S,12S,15R,16E,18R,19R,21R,23S,24E,26E,28E,30S,32S,35R)-1,18-dihydroxy-12-{(1R)-2-[(1S,3R,4R)-4-(2-hydroxyethoxy)-3-methoxycyclohexyl]-1-methylethyl}-19,30-dimethoxy-15,17,21,23,29,35-hexamethyl-11,36-dioxa-4-aza-tricyclo[30.3.1.04,9]hexatriaconta-16,24,26,28-tetraene-2,3,10,14,20-pentaone]	−21%	–
CN(C)C(=O)c1cc2cnc(Nc3ccc(N4CCNCC4)cn3)nc2n1C1CCCC1 [Compound A]	–	−9%
